Laboratory results from patent publication US20120122728A1, “Method Of Screening Drugs For Reversal Of Amyloid Beta Neurotoxicity” (UNIVERSITY OF CENTRAL FLORIDA RESEARCH FOUNDATION, INC., priority 2009, published 2012).

Legend:
[1] = system: cultured embryonic rat hippocampal neurons; experiment: MEA extracellular recording of spontaneous firing of cultured hippocampal neurons exposed to Aβ; type: cell-based; design: time until spiking activity of the cells stopped: dose or concentration left out as unconfirmed
Protocol: The MEAs and accompanying accessories, including the temperature controller, stimulator, amplifier and MC_Rack V 3.5.8 data acquisition software were obtained from ALA Scientific (Westbury, N.Y.) and Multichannel Systems (Reutlingen, Germany). The MEAs comprised of a glass base that acted as a substrate, gold connector contacts and electrodes composed of titanium nitride. Rings were made of Sylgard184 (Dow Corning) (1 part curing base and 10 parts elastomer base, cured at 60 uC for 45 minutes) using glass molds and were attached onto the MEAs after surface modification. Recordings were obtained from 12-16 D. old cultures. Cultures were kept in the incubator between recording sessions.
N-1(3-[trimethoxysilyl]propyl)-diethylenetriamine (DETA) was used to modify the MEAs to enhance cell attachment since the use of synthetic substrates such as DETA, allows for reproducible and precise quantification of the culture substrate properties. Glass coverslips (18 mm diameter, Number 1; VWR) were cleaned in two steps. First, they were soaked in 50/50% HCl (37%) (VWR)/methanol (Sigma), followed by H2SO4 (98%) (VWR) treatment. Next, they were rinsed in double distilled water. The coverslips were then boiled in deionized water, rinsed with acetone, and oven dried. The MEAs were initially cleaned overnight in 2% Tergazyme (Sigma) detergent solution. They were then rinsed in distilled water and plasma cleaned in a plasma cleaner (Harrick Plasma) for 30 mins. The N-1(3-[trimethoxysilyl]propyl)-diethylenetriamine (DETA) (United Chemical Technologies) surface assembled monolayer (SAM) film was formed by the reaction of the cleaned surfaces with a 0.1% (v/v) mixture of the organosilane in toluene. The DETA/toluene solution containing the MEAs was heated to 70 uC, rinsed with toluene, reheated to 70 uC, and then oven dried. Surfaces were characterized using contact angle measurement and X-ray photoelectron spectroscopy (XPS) as described previously.
(§1) All applied procedures were approved by the Institutional Animal Care and Use Committee of UCF. The protocol was modified from previously published work concerning embryonic rat hippocampal cultures. Pregnant rats, 18 days in gestation, obtained from Charles River were euthanized with carbon dioxide and the fetuses were collected in ice cold Hibernate E (BrainBits)/B27/Glutamax™/Antibiotic-Antimycotic (Invitrogen) (dissecting medium). Each fetus was decapitated and the whole brain was transferred to fresh ice cold dissecting medium. After isolation, the hippocampi were collected in a fresh tube of dissecting medium. Hippocampal neurons were obtained by triturating the tissue using a Pasteur pipette. In order to remove any debris from damaged cells the 1 ml cell suspension was layered over a 4 ml step gradient (Optipep diluted 0.505:0.495 (v/v) with the dissecting medium and then made to 15%, 20%, 25% and 35% (v/v) in the dissecting medium) followed by centrifugation for 15 min at 800 g and 4 uC. After centrifugation, one strong band of cells was obtained. This band of cells was resuspended in culture medium (Neurobasal/B27/Glutamax™/Antibiotic-Antimycotic) and plated at a density of 100 cells/mm2 on DETA coated coverslips for patch clamp electrophysiology and at 200 cells/mm2 on the MEAs.
(§2) Different concentrations of Aβ (1-42) (Bachem) aggregates were prepared according to the protocol by Klein [1] in Neurobasal medium without phenol red, and quantified using Immunoblots. Curcumin (Cayman Chemicals) was prepared and the concentration chosen according to previously published protocols.
In all experiments with MEAs Aβ was administered to the cells on day 16 in vitro. We chose experimental paradigms similar to those used for patch clamp electrophysiology, to study the potential therapeutic effects of curcumin. In coadministration experiments, cells were exposed to a mixture of 100 nM Aβ and 1 mM Curcumin for 24 hrs, and recordings were performed. […]

[2] = system: cultured embryonic rat hippocampal neurons; experiment: Whole cell patch clamp electrophysiology of hippocampal neurons exposed to Aβ; type: cell-based
Text: as §1, §2
For patch clamp electrophysiology experiments, Aβ was administered to the cells on day 10 in vitro and recordings were performed after 24 hrs to obtain baseline values for control cells and Aβ treated cells. In coadministration experiments, a mixture of 100 nM Aβ and 1 mM curcumin was administered for 24 hrs after which patch clamp electrophysiology recordings were performed. In sequential administration, cells were initially exposed to freshly aggregated Aβ alone, followed by replacement of the Aβ solution with curcumin for 24 hrs patch clamp recordings were performed 24 hrs after curcumin treatment. Whole-cell patch clamp recordings were performed at room temperature in a recording chamber on the stage of a Zeiss Axioscope 2 FS Plus upright microscope as described in [44].

Aβ oligomerization [3] = molecular target: T1, Aβ oligomerization (Homo sapiens, UniProt P05067); experiment: Immunoblot of Aβ oligomers; type: biochemical; details: immunoblot lane 2
Protocol: Different concentrations of Aβ (1-42) (Bachem) aggregates were prepared according to the protocol by Klein [1] in Neurobasal medium without phenol red, and quantified using Immunoblots. Curcumin (Cayman Chemicals) was prepared and the concentration chosen according to previously published protocols [20].

Aβ oligomerization [4] = molecular target: T1, Aβ oligomerization; details: literature [20], compared with Ibuprofen; cited from earlier work
amyloid plaque burden = details: transgenic APPsw mice; cited from earlier work
hippocampal cells = experiment: Cell survival (live dead assay, MTT assay) after Aβ treatment; type: cell-based, rat
Protocol: To confirm this finding a MTT assay (3-[4,5-dimethylthiazol-2-yl]-2,5-diphenyl tetrazolium bromide) was performed on the amyloid treated cells and this supported the results obtained with the live dead assay.

[5] = all measured concentrations of Aβ

T1 sequence (P05067 672-713 limits assumed): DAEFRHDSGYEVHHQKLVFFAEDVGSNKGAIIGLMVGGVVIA

Row | Molecule | time at which drop in firing frequency reached a plateau ([1]; after curcumin and Aβ were coadministered) | time at which recovery of spontaneous firing was observed ([1]; after curcumin was applied post Aβ exposure) | ameliorating Aβ toxicity, coadministration versus administration after 24 h Aβ ([2]; low doses of curcumin) | Aβ oligomerization in the presence of Curcumin (Aβ oligomerization [3]) | Aβ oligomer formation and Aβ toxicity (Aβ oligomerization [4]) | amyloid plaque burden (amyloid plaque burden) | time until the cells stopped firing ([1]; 50 nM Aβ, lowest concentration) | time until spiking activity of the cells stopped ([1]; Aβ, highest concentration tested) | effect on spontaneous spiking activity [1, 5] | firing frequency preceding blockade of spontaneous activity [1, 5] | outward (K+) currents ([2]; 100 nM Aβ, 24 h) | resting membrane potential ([2]; 100 nM Aβ, 24 h) | spontaneous firing ([2]; 100 nM Aβ, 24 h, 30 exposed cells) | cell survival compared to the control (hippocampal cells; 100 nM Aβ, 24 hours and 7 days) | cell death (hippocampal cells; high concentrations of Aβ, cells on MEAs)
1 | COc1cc(/C=C/C(=O)CC(=O)/C=C/c2ccc(O)c(OC)c2)ccc1O [curcumin] | about 18 hrs | around 10 hrs | more successful in ameliorating Aβ toxicity when coadministered with Aβ | apparent inhibition of Aβ oligomerization | inhibiting Aβ oligomer formation and Aβ toxicity at significantly lower concentrations than Ibuprofen | reduce amyloid plaque burden |  |  |  |  |  |  |  |  | 
2 | Aβ: Amyloid beta (1-42) peptide (Bachem), soluble oligomer aggregates used as neurotoxicant [Aβ (1-42)] |  |  |  |  |  |  | about 11 h | about 150 min | completely abolishes spontaneous spiking activity | significant increase in firing frequency | increase in the amplitude of the outward (K^+) currents | depolarization in the resting membrane potential | no spontaneous action potentials were recorded | small differences in cell survival compared to the control | high cell death
